# Experimental data as given in patent publication US20240400549A1, “COMPOUNDS AND THEIR USES FOR TREATING NEURODEGENERATIVE DISEASE” (Academia Sinica, priority 2021, published 2024).
# Target: T1, C-TDP-43 oligomeric intermediates (Homo sapiens, UniProt Q13148)
# T1 construct: expressed in transfected cells; host or cells: Neuro-2a (mouse neuroblastoma)
# Test: FLIM-FRET of C-TDP-43 oligomeric intermediates in Neuro-2a cells
# Type: cell-based, mouse
# Description: To study the EFRET of oligomeric intermediates of C-TDP-43, we seeded 2×10^6 cells/dish of Neuro-2a cells in sterile 35 mm μ-Dish and transfected with either both 0.55 μg eGFP-C-TDP-43 and 0.55 μg mCherry-C-TDP-43 or both 0.55 μg eGFP and 0.55 μg mCherry (negative control) plasmids. After 2 hours, compound I-1b was delivered to the experimental group. After 48 h incubation, the Neuro-2a cells were fixed (4% paraformaldehyde in 15 min and stored in 1×PBS buffer) and further analyzed by Q2 FastFLIM system (ISS Inc.). The Neruo2a cells were monitored and captured under oil-immersion objective observation (Nikon Plan Apo 100×/numerical aperture (NA) 1.4). […]
# The fitting method of the FastFLIM images were described in the “Experimental Section” of a previous publication (He, R. Y et al. Adv. Sci. 2020, 7 (2), 1901165). […] The FRET efficiency of oligomeric intermediates was calculated by the formula: […]
# wherein τD is donor lifetime of eGFP only, and τDA denotes lifetime of intermediates. Then, the EFRET of each pixel to form the FRET maps as well as the histogram of EFRET (FIG. 12B) were calculated by ISS Software VistaVision. […]
# To assess C-TDP-43 oligomeric intermediates, fluorescence lifetime imaging microscopy (FLIM) was employed to measure the efficiency of Forster resonance energy transfer (EFRET) of the fluorescence protein-tagged C-TDP-43 in the presence or absence of compound I-1b. […]
# T1 sequence (Q13148 208-414 limits assumed): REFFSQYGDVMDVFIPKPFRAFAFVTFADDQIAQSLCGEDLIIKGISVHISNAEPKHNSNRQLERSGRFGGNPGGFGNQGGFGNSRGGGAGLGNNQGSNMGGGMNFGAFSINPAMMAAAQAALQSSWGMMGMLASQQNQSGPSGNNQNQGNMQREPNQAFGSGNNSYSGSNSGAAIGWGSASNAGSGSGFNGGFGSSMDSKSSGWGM
# T1 sequence (Q13148 208-414 limits assumed): as above
structure (smiles),measurement,setting,value
"CN(C)c1ccc(-c2nc3ccc(OCCOCCOCCNc4cccc5c4C(=O)N(C4CCC(=O)NC4=O)C5=O)cc3s2)cc1 (centres unmarked) [I-1b, 4-((2-(2-(2-((2-(4-(dimethylamino)phenyl)benzo[d]thiazol-6-yl)oxy)ethoxy)ethoxy)ethyl)amino)-2-(2,6-dioxopiperidin-3-yl)isoindoline-1,3-dione]",averaged EFRET value,"Neuro-2a cells expressing 2FP—C-TDP-43, 48 h, 28.12% without compound, 3.36% negative control",22.4%
same,"EFRET of the C-TDP-43 oligomeric intermediates (statistically, ISS VistaVision)","Neuro-2a cells, decreased from 48.92% without compound",40.11%
